Measured values from patent US4582821A, “Inhibition of cyclic nucleotide independent protein kinases” (E. I. Du Pont de Nemours and Company, priority 1983, dated 1986).

Tests used:
[1] = tested on: A-431 plasma membrane extracts (EGF-mediated protein phosphorylation); assay: Protein phosphorylation in solubilized A-431 plasma membrane extracts, with or without EGF; format: biochemical, human; conditions: 477 nmol/mg protein; for EGF Added (pmol 32P incorporated/min/mg protein): control 96.2; for No EGF Added (pmol 32P incorporated/min/mg protein): control 21.6
Method: The capacity of certain peptide halomethyl ketones to inhibit protein phosphorylation is illustrated by Examples 1-8, below, in which solubilized plasma membranes prepared from A-431 human epidermoid carcinoma cells were incubated with [γ-^32 P] ATP in the presence of EGF.
A-431 human epidermoid carcinoma cells were grown in Dulbecco's modified Eagle's medium containing 5% fetal calf serum. Plasma membranes were isolated by a method substantially similar to that described by Thom et al., Biochem J. 168:187 (1977), and kept at -70°. Solubilization of plasma membranes was performed substantially as described by Cohen et al., J. Biol. Chem. 255:4834 (1980). In this procedure, 7.5 mg/mL protein was solubilized with 5% Triton X-100 (octylphenol), 10% glycerol, and 20 mM Hepes buffer (N-2-hydroxyethylpiperazine-N^1 -2-ethanesulfonic acid), pH 7.4. This mixture was incubated for 20 minutes at about 23°, followed by centrifugation at 100,000 xg for 60 minutes.
(§1) Protein phosphorylation assays were conducted substantially as described by Carpenter et al., J. Biol. Chem. 254:4884 (1979). Each assay mixture contained, in a final volume of 70 μL: 20 mM Hepes, pH 7.4, 0.01% bovine serum albumin (BSA), 15-150 μg protein in Triton extract, 100 ng EGF, 1 mM MnCl2 and 10-20 μM [γ-^32 P] ATP (2-4 μCi). Peptide halomethyl ketones were added as solutions in ethanol; an equivalent volume of ethanol was added to controls. Assay mixtures were incubated at about 23° for ten minutes, with or without added EGF. Mixtures were then held at 0° for ten minutes before initiation of phosphorylation by addition of 15 μM γ-^32 P) ATP (2 μCi). Reactions were terminated after 3 minutes at 0° by applying an aliquot of the assay mixture to a Whatman 3MM filter paper (2×2 cm), which was then suspended in ice-cold 10% trichloroacetic acid containing 10 mM pyrophosphate. This suspension was gently shaken for a period of 1 hour, during which the trichloroacetic acid/pyrophosphate mixture was changed three times. Finally, the filter papers were dried and radioactivity measured by scintillation counting.

[2] = target: T1, A-431 cell EGF receptor (Homo sapiens, UniProt P00533); assay: Protein phosphorylation of A-431 cell membrane EGF receptors (intact membranes, EGF present); format: biochemical; conditions: 600 nmoles/mg protein, intact A-431 membranes
T1 construct: intact A-431 cell membranes were employed, rather than solubilized extracts; endogenous in cells; host or cells: A-431 human epidermoid carcinoma cells (plasma membranes)
T1 sequence (P00533 25-1210): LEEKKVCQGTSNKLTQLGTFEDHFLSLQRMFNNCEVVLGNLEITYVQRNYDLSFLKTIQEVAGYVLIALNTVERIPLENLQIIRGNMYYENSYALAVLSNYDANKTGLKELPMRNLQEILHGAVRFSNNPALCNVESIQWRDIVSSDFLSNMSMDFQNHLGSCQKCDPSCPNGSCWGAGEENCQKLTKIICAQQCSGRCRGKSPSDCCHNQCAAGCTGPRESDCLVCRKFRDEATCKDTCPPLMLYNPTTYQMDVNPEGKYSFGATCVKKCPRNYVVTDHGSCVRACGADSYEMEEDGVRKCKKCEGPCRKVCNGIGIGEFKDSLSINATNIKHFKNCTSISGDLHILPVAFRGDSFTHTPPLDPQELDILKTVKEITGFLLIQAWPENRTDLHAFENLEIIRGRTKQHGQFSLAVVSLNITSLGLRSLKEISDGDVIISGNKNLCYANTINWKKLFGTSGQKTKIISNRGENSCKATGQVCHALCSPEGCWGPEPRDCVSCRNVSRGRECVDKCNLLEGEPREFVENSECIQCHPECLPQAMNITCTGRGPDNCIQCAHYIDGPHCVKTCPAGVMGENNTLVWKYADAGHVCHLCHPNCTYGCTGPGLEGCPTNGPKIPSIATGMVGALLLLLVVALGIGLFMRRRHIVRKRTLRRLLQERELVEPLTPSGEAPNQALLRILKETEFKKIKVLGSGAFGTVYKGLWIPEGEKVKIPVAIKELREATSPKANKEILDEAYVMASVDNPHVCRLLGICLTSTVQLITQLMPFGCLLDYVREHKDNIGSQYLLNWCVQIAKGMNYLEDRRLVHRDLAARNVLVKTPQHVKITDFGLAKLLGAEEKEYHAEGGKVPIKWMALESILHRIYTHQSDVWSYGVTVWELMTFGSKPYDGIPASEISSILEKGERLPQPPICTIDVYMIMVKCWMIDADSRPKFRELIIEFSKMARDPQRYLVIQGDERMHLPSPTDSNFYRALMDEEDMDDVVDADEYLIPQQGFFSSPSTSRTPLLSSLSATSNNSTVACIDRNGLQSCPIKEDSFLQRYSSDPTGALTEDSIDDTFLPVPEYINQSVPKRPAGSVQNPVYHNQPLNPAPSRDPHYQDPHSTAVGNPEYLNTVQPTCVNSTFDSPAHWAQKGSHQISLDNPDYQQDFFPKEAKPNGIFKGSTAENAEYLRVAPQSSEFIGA
Method: as §1
Assays were conducted substantially as described above, except intact A-431 cell membranes were employed, rather than solubilized extracts, and assay mixtures contained 1 mM ouabain. In these Examples, reactions were permitted to proceed for 6 minutes. This technique is substantially similar to that disclosed by Navarro et al., Biochemistry, 21:6138 (1982).

[3] = tested on: lymphoma cell line MOLT-4; assay: Tumor cell line growth inhibition, MOLT-4; format: cell-based
Method: (§2) In this series of experiments, the tumor cell growth inhibitory capacity of various peptide halomethyl ketones was tested against lymphoma cell lines YAC-1 and MOLT-4, and against an erythroleukemia cell line, K-562. The lymphoma cell line YAC-1 is described by Kiessling, et al., Eur. J. Immunol. 5:112 (1975), and MOLT-4 is described by Minowada, et al., J. Natl. Cancer Inst. 49:891 (1972) and Nilsson, et al., Int. J. Cancer 15:321 (1975). The erythroleukemia cell line K-562 is described by Lozzio, et al., Leuk. Res. 3:363 (1979). In these experiments, cells were grown on standard media as 10 mL suspension cultures. Initial cell density was 10^5 cells/mL. At day 0, test compounds were introduced in ethanol; control cultures received an equal volume of ethanol. Cells were counted at the times indicated.

[4] = tested on: erythroleukemia cell line K-562; assay: Tumor cell line growth inhibition, K-562; format: cell-based
Method: as §2

Which “% inhibition, EGF Added” value [1] does the source give for `CC(C)C[C@H](NC(=O)OC(C)(C)C)C(=O)CCl` [Boc-LeuCH2 Cl] here?
The value was 28%.

What about the “EGF Added (pmol 32P incorporated/min/mg protein)” value [1] of the same molecule?
Its value is 69.0 pmol^32 P incorporated/min/mg.

And the “% inhibition, No EGF Added” value [1]?
Its value is 48%.

What about the “No EGF Added (pmol 32P incorporated/min/mg protein)” value [1] of the same molecule?
Its value is 11.3 pmol^32 P incorporated/min/mg.

What about the “% inhibition” value [2] of the same molecule?
The value was 7%.

What about the “% Growth Relative to Control Cultures” value ([3]; 0.4 μg/mL, day 1) of the same molecule?
The value was 73%.

What about the “% Growth Relative to Control Cultures” value ([3]; 0.4 μg/mL, day 2) of the same molecule?
The value was 86%.

What about the “% Growth Relative to Control Cultures” value ([3]; 0.4 μg/mL, day 3) of the same molecule?
Its value is 73%.

And the “% Growth Relative to Control Cultures” value ([3]; 0.4 μg/mL, day 7)?
Its value is 86%.

And the “% Growth Relative to Control Cultures” value ([3]; 2.0 μg/mL, day 1)?
Its value is 47%.

And the “% Growth Relative to Control Cultures” value ([3]; 2.0 μg/mL, day 2)?
The value was 28%.

What about the “% Growth Relative to Control Cultures” value ([3]; 2.0 μg/mL, day 3) of the same molecule?
The value was 10%.

And the “% Growth Relative to Control Cultures” value ([3]; 2.0 μg/mL, day 4)?
The value was 11%.

What about the “% Growth Relative to Control Cultures” value ([3]; 2.0 μg/mL, day 7) of the same molecule?
Its value is 63%.

What about the “% Growth Relative to Control Cultures” value ([3]; 10. μg/mL, day 2) of the same molecule?
The value was 38%.

And the “% Growth Relative to Control Cultures” value ([3]; 10. μg/mL, day 3)?
The value was 3%.

And the “% Growth Relative to Control Cultures” value ([3]; 10. μg/mL, day 4)?
Its value is 3%.

What about the “% Growth Relative to Control Cultures” value ([3]; 10. μg/mL, day 7) of the same molecule?
Its value is 4%.

And the “% Growth Relative to Control Cultures” value ([4]; 0.4 μg/mL, day 1)?
The value was 47%.

And the “% Growth Relative to Control Cultures” value ([4]; 0.4 μg/mL, day 3)?
Its value is 53%.

What about the “% Growth Relative to Control Cultures” value ([4]; 2.0 μg/mL, day 1) of the same molecule?
The value was 17%.

And the “% Growth Relative to Control Cultures” value ([4]; 2.0 μg/mL, day 2)?
The value was 31%.

And the “% Growth Relative to Control Cultures” value ([4]; 2.0 μg/mL, day 3)?
The value was 8%.

And the “% Growth Relative to Control Cultures” value ([4]; 2.0 μg/mL, day 4)?
The value was 15%.

What about the “% Growth Relative to Control Cultures” value ([4]; 2.0 μg/mL, day 7) of the same molecule?
The value was 37%.

And the “% Growth Relative to Control Cultures” value ([4]; 10. μg/mL, day 1)?
Its value is 8%.

What about the “% Growth Relative to Control Cultures” value ([4]; 10. μg/mL, day 2) of the same molecule?
Its value is 17%.

What about the “% Growth Relative to Control Cultures” value ([4]; 10. μg/mL, day 3) of the same molecule?
Its value is 3%.

And the “% Growth Relative to Control Cultures” value ([4]; 10. μg/mL, day 4)?
The value was 6%.

And the “% Growth Relative to Control Cultures” value ([4]; 10. μg/mL, day 7)?
The value was 3%.

Which “% inhibition, EGF Added” value [1] does the source give for `CC(C)(C)OC(=O)N[C@@H](Cc1ccc(O)cc1)C(=O)CCl` [Boc-TyrCH2 Cl] here?
The value was 45%.

And the “EGF Added (pmol 32P incorporated/min/mg protein)” value [1]?
The value was 53.0 pmol^32 P incorporated/min/mg.

What about the “% inhibition, No EGF Added” value [1] of the same molecule?
The value was 64%.

What about the “No EGF Added (pmol 32P incorporated/min/mg protein)” value [1] of the same molecule?
Its value is 7.8 pmol^32 P incorporated/min/mg.

What about the “% inhibition” value [2] of the same molecule?
Its value is 34%.

And the “% Growth Relative to Control Cultures” value ([3]; 0.4 μg/mL, day 1)?
Its value is 80%.

And the “% Growth Relative to Control Cultures” value ([3]; 0.4 μg/mL, day 3)?
Its value is 85%.

And the “% Growth Relative to Control Cultures” value ([3]; 0.4 μg/mL, day 4)?
The value was 69%.

And the “% Growth Relative to Control Cultures” value ([3]; 2.0 μg/mL, day 1)?
Its value is 56%.

And the “% Growth Relative to Control Cultures” value ([3]; 2.0 μg/mL, day 2)?
The value was 31%.

What about the “% Growth Relative to Control Cultures” value ([3]; 2.0 μg/mL, day 3) of the same molecule?
The value was 17%.

What about the “% Growth Relative to Control Cultures” value ([3]; 2.0 μg/mL, day 4) of the same molecule?
The value was 16%.

And the “% Growth Relative to Control Cultures” value ([3]; 2.0 μg/mL, day 7)?
Its value is 31%.

What about the “% Growth Relative to Control Cultures” value ([3]; 10. μg/mL, day 1) of the same molecule?
The value was 39%.

What about the “% Growth Relative to Control Cultures” value ([3]; 10. μg/mL, day 2) of the same molecule?
Its value is 19%.

What about the “% Growth Relative to Control Cultures” value ([3]; 10. μg/mL, day 3) of the same molecule?
Its value is 8%.

And the “% Growth Relative to Control Cultures” value ([3]; 10. μg/mL, day 4)?
Its value is 3%.

What about the “% Growth Relative to Control Cultures” value ([3]; 10. μg/mL, day 7) of the same molecule?
The value was 0%.

And the “% Growth Relative to Control Cultures” value ([4]; 2.0 μg/mL, day 1)?
Its value is 81%.

And the “% Growth Relative to Control Cultures” value ([4]; 2.0 μg/mL, day 2)?
Its value is 23%.

What about the “% Growth Relative to Control Cultures” value ([4]; 2.0 μg/mL, day 3) of the same molecule?
The value was 15%.

What about the “% Growth Relative to Control Cultures” value ([4]; 2.0 μg/mL, day 4) of the same molecule?
The value was 19%.

What about the “% Growth Relative to Control Cultures” value ([4]; 2.0 μg/mL, day 7) of the same molecule?
Its value is 44%.

And the “% Growth Relative to Control Cultures” value ([4]; 10. μg/mL, day 1)?
Its value is 64%.

And the “% Growth Relative to Control Cultures” value ([4]; 10. μg/mL, day 2)?
Its value is 7%.

And the “% Growth Relative to Control Cultures” value ([4]; 10. μg/mL, day 3)?
Its value is 2%.

What about the “% Growth Relative to Control Cultures” value ([4]; 10. μg/mL, day 4) of the same molecule?
The value was 2%.

And the “% Growth Relative to Control Cultures” value ([4]; 10. μg/mL, day 7)?
The value was 0%.
